Results as given in ChEMBL document CHEMBL3217645, “Online parallel fragment screening and rapid hit exploration for nicotinic acetylcholine receptors” (Medchemcomm, 2011).

Columns and labels:
[1] = Selectivity ratio of Ki for Lymnaea stagnalis AChBP over Ki for Aplysia californica AChBP
[2] = biological target: Acetylcholine-binding protein (Lymnaea stagnalis, UniProt P58154); assay: Displacement of [3H]epibatadine from Lymnaea stagnalis recombinant C-terminal His-tagged AChBP expressed in baculovirus infected SF9 cells after 1.5 hrs by scintillation counting analysis
[3] = Displacement of [3H]epibatadine from Aplysia californica recombinant C-terminal His-tagged AChBP expressed in baculovirus infected SF9 cells after 1.5 hrs by scintillation counting analysis
[4] = biological target: Neuronal acetylcholine receptor subunit alpha-7 (Homo sapiens, UniProt P36544); assay: Displacement of [3H]epibatadine from human alpha7 nAChR expressed in human SH-SY5Y cells after 1.5 hrs by scintillation counting analysis; format: cell-based
[5] = biological target: Neuronal acetylcholine receptor; alpha4/beta2 (Homo sapiens, UniProt P17787+P43681); assay: Displacement of [3H]epibatadine from human alpha4beta2 nAChR expressed in HEK293T cells after 1.5 hrs by scintillation counting analysis; format: cell-based, HEK-293T
[6] = Selectivity ratio of Ki for Lymnaea stagnalis recombinant C-terminal His-tagged AChBP to Ki for human alpha7 nAChR

Chain of Neuronal acetylcholine receptor subunit alpha-7 (P36544 whole entry): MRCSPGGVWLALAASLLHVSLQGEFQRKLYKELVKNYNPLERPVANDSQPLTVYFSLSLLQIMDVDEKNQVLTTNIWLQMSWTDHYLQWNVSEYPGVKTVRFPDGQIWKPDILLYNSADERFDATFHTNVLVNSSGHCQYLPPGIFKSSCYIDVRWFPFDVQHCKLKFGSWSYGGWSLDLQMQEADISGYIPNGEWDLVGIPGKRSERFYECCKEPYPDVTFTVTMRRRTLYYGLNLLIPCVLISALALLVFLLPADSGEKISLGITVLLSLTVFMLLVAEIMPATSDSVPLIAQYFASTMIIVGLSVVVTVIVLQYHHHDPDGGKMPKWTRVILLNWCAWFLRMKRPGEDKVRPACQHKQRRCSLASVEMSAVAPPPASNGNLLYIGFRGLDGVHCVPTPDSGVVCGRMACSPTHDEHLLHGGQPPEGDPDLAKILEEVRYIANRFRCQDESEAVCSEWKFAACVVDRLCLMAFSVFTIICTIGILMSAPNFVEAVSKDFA
Chain of Acetylcholine-binding protein (P58154 whole entry): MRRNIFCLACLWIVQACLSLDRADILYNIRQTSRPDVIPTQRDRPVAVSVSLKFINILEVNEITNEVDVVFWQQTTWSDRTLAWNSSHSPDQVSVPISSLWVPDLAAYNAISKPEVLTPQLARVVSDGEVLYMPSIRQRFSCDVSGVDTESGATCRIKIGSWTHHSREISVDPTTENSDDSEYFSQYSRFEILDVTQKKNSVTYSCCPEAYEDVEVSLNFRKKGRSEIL
Chain of Neuronal acetylcholine receptor; alpha4/beta2 (P17787 whole entry): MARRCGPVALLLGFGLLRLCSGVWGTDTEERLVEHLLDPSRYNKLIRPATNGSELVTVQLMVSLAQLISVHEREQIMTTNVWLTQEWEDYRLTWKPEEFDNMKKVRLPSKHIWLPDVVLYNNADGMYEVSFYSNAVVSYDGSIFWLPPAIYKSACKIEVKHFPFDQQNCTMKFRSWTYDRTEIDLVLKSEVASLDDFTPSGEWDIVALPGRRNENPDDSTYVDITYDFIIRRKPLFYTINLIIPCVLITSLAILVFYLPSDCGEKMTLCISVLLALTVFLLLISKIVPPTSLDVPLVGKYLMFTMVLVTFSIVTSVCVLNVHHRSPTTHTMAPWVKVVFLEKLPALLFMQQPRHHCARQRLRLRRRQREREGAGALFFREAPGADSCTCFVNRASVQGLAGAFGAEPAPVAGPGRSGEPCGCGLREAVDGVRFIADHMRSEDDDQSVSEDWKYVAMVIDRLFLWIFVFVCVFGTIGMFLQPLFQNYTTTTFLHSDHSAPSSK
Chain of Neuronal acetylcholine receptor; alpha4/beta2 (P43681 whole entry): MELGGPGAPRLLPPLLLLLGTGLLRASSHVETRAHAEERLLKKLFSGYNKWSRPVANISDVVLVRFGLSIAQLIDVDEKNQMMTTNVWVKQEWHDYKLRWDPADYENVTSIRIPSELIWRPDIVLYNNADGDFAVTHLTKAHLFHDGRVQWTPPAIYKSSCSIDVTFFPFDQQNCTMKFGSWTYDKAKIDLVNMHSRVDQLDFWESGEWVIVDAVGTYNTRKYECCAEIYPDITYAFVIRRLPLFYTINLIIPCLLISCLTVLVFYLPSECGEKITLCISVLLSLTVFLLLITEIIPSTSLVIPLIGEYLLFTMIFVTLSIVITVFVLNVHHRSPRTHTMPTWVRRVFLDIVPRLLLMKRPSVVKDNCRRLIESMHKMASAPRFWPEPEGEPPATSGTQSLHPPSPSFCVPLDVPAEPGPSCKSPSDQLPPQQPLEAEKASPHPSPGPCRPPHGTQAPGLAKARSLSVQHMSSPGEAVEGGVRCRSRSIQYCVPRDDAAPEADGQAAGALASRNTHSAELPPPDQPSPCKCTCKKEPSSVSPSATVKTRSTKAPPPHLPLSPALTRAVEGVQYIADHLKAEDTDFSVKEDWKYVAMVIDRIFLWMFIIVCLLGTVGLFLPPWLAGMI

SMILES | Ratio Ki [1] | Ki [2] [µM] | pKi [3] | Ki [4] [µM] | Ki [5] [µM] | Ratio Ki [6]
CC(C)N1CCC(=NO)CC1 | > 9.5 | 10.5 | < 4 | 10.2 | > 100 | –
CN1[C@@H]2CC[C@H]1C/C(=N\Nc1ccccc1Cl)C2 | – | 0.204 | – | 2.19 | – | 5
Fc1ccc(F)c(NN=C2CCN(CCc3ccccc3)CC2)c1 | – | 0.0891 | – | > 100 | – | –
C[C@H](NC(=O)[C@H](CS)NC(=O)[C@H](CCCNC(=N)N)NC(=O)[C@@H]1CCCN1C(=O)[C@H](CC(=O)O)NC(=O)[C@H](CO)NC(=O)[C@H](CS)NC(=O)[C@H](CS)NC(=O)CN)C(=O)N[C@@H](Cc1c[nH]c2ccccc12)C(=O)N[C@@H](CCCNC(=N)N)C(=O)N[C@@H](CS)C(N)=O | > 6000 | – | – | – | – | –
